# In patent US9034855B2, “Substituted phenylacetate and phenylpropane amides and use thereof” (Bayer Intellectual Property GmbH, priority 2010, dated 2015):
# Assays:
# [1] = molecular target: T1, human V1a receptor (Homo sapiens, UniProt P37288); assay: Cellular in vitro assay for determining the vasopressin receptor activity (aequorin luminescence, recombinant CHO cells), human V1a; format: cell-based; settings: CHO cells expressing aequorin, transfected with human V1a receptor; agonist [Arg8]-vasopressin; read-out: IC50 hV1a
# T1 construct: expressed in transfected cells; host or cells: CHO K1 (ATCC), constitutively expressing modified aequorin
# From the text: (§1) B-1. Cellular In Vitro Assay for Determining the Vasopressin Receptor Activity
# (§2) The identification of agonists and antagonists of the V1a and V2 vasopressin receptors from humans and rats and also the quantification of the activity of the substances described here takes place using recombinant cell lines. These cells derive originally from a hamster's ovary epithelial cell (Chinese Hamster Ovary, CHO K1, ATCC: American Type Culture Collection, Manassas, Va. 20108, USA). The test cell lines constitutively express a modified form of the calcium-sensitive photoprotein aequorin, which, after reconstitution with the cofactor coelenterazine, emits light when there are increases in the free calcium concentration (Rizzuto R., Simpson A. W., Brini M., Pozzan T.; Nature 358 (1992) 325-327). In addition, the cells are stably transfected with the human or rat V1a or V2 receptors. In the case of the Gs-coupling V2 receptors, the cells are stably transfected with a further gene, which codes for the promiscuous Gα16 protein (Amatruda T. T., Steele D. A., Slepak V. Z., Simon M A., Proc. Na. Acad. Sci. USA 88 (1991), 5587-5591), either independently or as a fusion gene. The resulting vasopressin receptor test cells react to stimulation of the recombinantly expressed vasopressin receptors by intracellular release of calcium ions, which can be quantified by the resulting aequorin luminescence using a suitable luminometer (Milligan G., Marshall F., Rees S., Trends in Pharmaco. Sci. 17 (1996) 235-237).
# (§3) On the day before the assay, the cells are plated out in culture medium (DMEM, 10% FCS, 2 mM glutamine, 10 mM HEPES) in 384-well microtiter plates and kept in a cell incubator (96% atmospheric humidity, 5% v/v carbon dioxide, 37° C.). On the day of the assay, the culture medium is replaced by a Tyrode solution (140 mM sodium chloride, 5 mM potassium chloride, 1 mM magnesium chloride, 2 mM calcium chloride, 20 mM glucose, 20 mM HEPES), which additionally contains the cofactor coelenterazine (50 μM), and the microtiter plate is then incubated for a further 3-4 hours. The test substances in various concentrations are placed for 10 to 20 minutes in the wells of the microtiter plate before the agonist [Arg8]-vasopressin is added, and the resulting light signal is measured immediately in the luminometer. The IC50 values are calculated using the GraphPad PRISM computer program (Version 3.02).
# (§4) Table A below lists representative IC50 values for the compounds according to the invention transfected with the human V1a or V2 receptor: […]
# [2] = molecular target: T2, human V2 receptor (Homo sapiens, UniProt P30518); assay: Cellular in vitro assay for determining the vasopressin receptor activity (aequorin luminescence, recombinant CHO cells), human V2; format: cell-based; settings: CHO cells expressing aequorin and Gα16, transfected with human V2 receptor; agonist [Arg8]-vasopressin; read-out: IC50 hV2
# T2 construct: expressed in transfected cells; host or cells: CHO K1 (ATCC), constitutively expressing modified aequorin, co-transfected with promiscuous G-alpha-16
# From the text: as §1, §2, §3, §4
# T1 sequence (P37288 whole entry): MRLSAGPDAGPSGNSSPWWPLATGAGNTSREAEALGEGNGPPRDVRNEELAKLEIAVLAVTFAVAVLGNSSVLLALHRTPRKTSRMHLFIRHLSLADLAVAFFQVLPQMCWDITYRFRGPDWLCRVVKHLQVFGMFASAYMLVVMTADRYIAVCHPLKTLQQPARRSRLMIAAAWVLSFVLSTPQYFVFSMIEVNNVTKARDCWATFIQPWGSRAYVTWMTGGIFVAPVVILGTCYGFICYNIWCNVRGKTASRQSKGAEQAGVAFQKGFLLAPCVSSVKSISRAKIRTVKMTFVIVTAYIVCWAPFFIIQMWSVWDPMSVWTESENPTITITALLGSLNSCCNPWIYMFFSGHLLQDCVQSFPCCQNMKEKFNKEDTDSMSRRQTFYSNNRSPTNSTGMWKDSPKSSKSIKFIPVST
# T2 sequence (P30518 whole entry): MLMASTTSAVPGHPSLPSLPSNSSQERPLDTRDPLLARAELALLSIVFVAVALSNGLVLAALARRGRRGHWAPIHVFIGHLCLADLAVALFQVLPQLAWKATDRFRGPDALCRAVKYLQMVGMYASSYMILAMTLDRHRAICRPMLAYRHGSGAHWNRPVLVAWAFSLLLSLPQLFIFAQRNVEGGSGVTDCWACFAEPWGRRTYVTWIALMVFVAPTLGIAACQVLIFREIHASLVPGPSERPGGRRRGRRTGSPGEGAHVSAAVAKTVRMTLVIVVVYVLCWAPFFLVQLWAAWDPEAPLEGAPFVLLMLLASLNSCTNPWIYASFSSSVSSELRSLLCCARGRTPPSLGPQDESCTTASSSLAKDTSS
IC50 [1] [nM],IC50 [2] [nM],SMILES
1.2,2.7,"CC(C)(NC(=O)[C@](C)(NC(=O)Cn1nc(-c2ccc(Cl)cc2)n(C[C@H](O)C(F)(F)F)c1=O)c1cccc(C(F)(F)F)c1)C(N)=O [Example 22, N^2-{(2R)-2-[({3-(4-Chlorophenyl)-5-oxo-4-[(2S)-3,3,3-trifluoro-2-hydroxypropyl]-4,5-dihydro-1H-1,2,4-triazol-1-yl}acetyl)amino]-2-[3-(trifluoromethyl)phenyl}propanoyl]-2-methylalaninamide]"
0.6,1.1,"C[C@](NC(=O)Cn1nc(-c2ccc(Cl)cc2)n(C[C@H](O)C(F)(F)F)c1=O)(C(=O)NCCC(N)=O)c1cccc(C(F)(F)F)c1 [Example 19, N^3-{(2R)-2-[({3-(4-Chlorophenyl)-5-oxo-4-[(2S)-3,3,3-trifluoro-2-hydroxypropyl]-4,5-dihydro-1H-1,2,4-triazol-1-yl}acetyl)amino]-2-[3-(trifluoromethyl)phenyl]propanoyl}-beta-alaninamide]"
1380,346,"CC(C)(NC(=O)C(NC(=O)Cn1nc(-c2ccc(Cl)cc2)n(C[C@H](O)C(F)(F)F)c1=O)c1cccc(C(F)(F)F)c1)C(N)=O (single isomer, unassigned) [Example 28]"
1.9,4.1,"O=C(Cn1nc(-c2ccc(Cl)cc2)n(C[C@H](O)C(F)(F)F)c1=O)NC(C(=O)NC1(C(=O)O)CC1)c1cccc(C(F)(F)F)c1 (single isomer, unassigned) [Example 4]"
9.2,58,"CCOC(=O)C1(NC(=O)C(NC(=O)Cn2nc(-c3ccc(Cl)cc3)n(C[C@H](O)C(F)(F)F)c2=O)c2cccc(C(F)(F)F)c2)CC1 (stereo partly drawn) [Example 1, Ethyl 1-({[({3-(4-chlorophenyl)-5-oxo-4-[(2S)-3,3,3-trifluoro-2-hydroxypropyl]-4,5-dihydro-1H-1,2,4-triazol-1-yl}acetyl)amino][3-(trifluoromethyl)phenyl]acetyl}amino)cyclopropanecarboxylate]"
1.2,1.9,"NC(=O)CCNC(=O)C(NC(=O)Cn1nc(-c2ccc(Cl)cc2)n(C[C@H](O)C(F)(F)F)c1=O)c1cccc(C(F)(F)F)c1 (single isomer, unassigned) [Example 18]"
136,61,"O=C(Cn1nc(-c2ccc(Cl)cc2)n(C[C@H](O)C(F)(F)F)c1=O)NC(C(=O)NCCOC(F)(F)F)c1cccc(C(F)(F)F)c1 (single isomer, unassigned) [Example 59]"
38,158,"CC(C)(CO)NC(=O)C(NC(=O)Cn1nc(-c2ccc(Cl)cc2)n(C[C@H](O)C(F)(F)F)c1=O)c1cccc(C(F)(F)F)c1 (single isomer, unassigned) [Example 42]"
12,310,"COC(=O)CCNC(=O)C(NC(=O)Cn1nc(-c2ccc(Cl)cc2)n(C2CC2)c1=O)c1cccc(C(F)(F)F)c1 (racemic) [Example 15, Methyl N-{({[3-(4-chlorophenyl)-4-cyclopropyl-5-oxo-4,5-dihydro-1H-1,2,4-triazol-1-yl]acetyl}-amino) [3-(trifluoromethyl)phenyl]acetyl}-beta-alaninate]"
4.9,0.8,"CC(C)(NC(=O)C[C@H](NC(=O)Cn1nc(-c2ccc(Cl)cc2)n(C[C@H](O)C(F)(F)F)c1=O)c1cccc(C(F)(F)F)c1)C(=O)O [Example 39, N-{(3S)-3-[({3-(4-Chlorophenyl)-5-oxo-4-[(2S)-3,3,3-trifluoro-2-hydroxypropyl]-4,5-dihydro-1H-1,2,4-triazol-1-yl}acetyl)amino]-3-[3-(trifluoromethyl)phenyl]propanoyl}-2-methylalanine]"
42,1170,"CCOC(=O)C1(NC(=O)C(NC(=O)Cn2nc(-c3ccc(Cl)cc3)n(C3CC3)c2=O)c2cccc(C(F)(F)F)c2)CC1 (racemic) [Example 5, Ethyl 1-({({[3-(4-chlorophenyl)-4-cyclopropyl-5-oxo-4,5-dihydro-1H-1,2,4-triazol-1-yl]acetyl}-amino) [3-(trifluoromethyl)phenyl]acetyl}amino)cyclopropanecarboxylate]"
32.8,38.6,"COC(=O)C(C)(C)NC(=O)C[C@H](NC(=O)Cn1nc(-c2ccc(Cl)cc2)n(C[C@H](O)C(F)(F)F)c1=O)c1cccc(C(F)(F)F)c1 [Example 38, Methyl N-{(3S)-3-[({3-(4-chlorophenyl)-5-oxo-4-[(2S)-3,3,3-trifluoro-2-hydroxypropyl]-4,5-dihydro-1H-1,2,4-triazol-1-yl}acetyl)amino]-3-[3-(trifluoromethyl)phenyl]propanoyl}-2-methylalaninate]"
1.7,2.3,"CC(C)(NC(=O)C(NC(=O)Cn1nc(-c2ccc(Cl)cc2)n(C[C@H](O)C(F)(F)F)c1=O)c1cccc(C(F)(F)F)c1)C(=O)O (single isomer, unassigned) [Example 26]"
53,9,"O=C(O)CCNC(=O)C(NC(=O)Cn1nc(-c2ccc(Cl)cc2)n(C[C@H](O)C(F)(F)F)c1=O)c1cccc(C(F)(F)F)c1 (stereo partly drawn) [Example 14, N-{[({3-(4-Chlorophenyl)-5-oxo-4-[(2S)-3,3,3-trifluoro-2-hydroxypropyl]-4,5-dihydro-1H-1,2,4-triazol-1-yl}acetyl)amino][3-(trifluoromethyl)phenyl]acetyl}-beta-alanine]"
3,144,"COCCNC(=O)C(NC(=O)Cn1nc(-c2ccc(Cl)cc2)n(C[C@H](O)C(F)(F)F)c1=O)c1ccccc1C(F)(F)F (stereo partly drawn) [Example 56, 2-[({3-(4-Chlorophenyl)-5-oxo-4-[(2S)-3,3,3-trifluoro-2-hydroxypropyl]-4,5-dihydro-1H-1,2,4-triazol-1-yl}acetyl)amino]-N-(2-methoxyethyl)-2-[2-(trifluoromethyl)phenyl]acetamide]"
6,569,"O=C(C[C@H](NC(=O)Cn1nc(-c2ccc(Cl)cc2)n(C2CC2)c1=O)c1ccccc1C(F)(F)F)NCCO [Example 55, (3S)-3-({[3-(4-Chlorophenyl)-4-cyclopropyl-5-oxo-4,5-dihydro-1H-1,2,4-triazol-1-yl]acetyl}-amino)-N-(2-hydroxyethyl)-3-[2-(trifluoromethyl)phenyl]propanamide]"
60,1600,"COCCn1c(-c2ccc(Cl)s2)nn(CC(=O)NC(C(=O)NC(C)(C)CO)c2cccc(C(F)(F)F)c2)c1=O (single isomer, unassigned) [Example 43, 2-({[3-(5-Chloro-2-thienyl)-4-(2-methoxyethyl)-5-oxo-4,5-dihydro-1H-1,2,4-triazol-1-yl]acetyl}amino)-N-(1-hydroxy-2-methylpropan-2-yl)-2-[3-(trifluoromethyl)phenyl]acetamide]"
3.5,136,"COCCNC(=O)C[C@H](NC(=O)Cn1nc(-c2ccc(Cl)cc2)n(C[C@H](O)C(F)(F)F)c1=O)c1ccccc1C(F)(F)F [Example 58, (3S)-3-[({3-(4-Chlorophenyl)-5-oxo-4-[(2S)-3,3,3-trifluoro-2-hydroxypropyl]-4,5-dihydro-1H-1,2,4-triazol-1-yl}acetyl)amino]-N-(2-methoxyethyl)-3-[2-(trifluoromethyl)phenyl]propanamide]"
24,182,"CC(C)(NC(=O)C(NC(=O)Cn1nc(-c2ccc(Cl)cc2)n(C2CC2)c1=O)c1cccc(C(F)(F)F)c1)C(=O)O (racemic) [Example 12, N-{({[3-(4-Chlorophenyl)-4-cyclopropyl-5-oxo-4,5-dihydro-1H-1,2,4-triazol-1-yl]acetyl}amino) [3-(trifluoromethyl)phenyl]acetyl}-2-methylalanine]"
2.2,7.6,"O=C(Cn1nc(-c2ccc(Cl)cc2)n(C[C@H](O)C(F)(F)F)c1=O)NC(C(=O)NCCO)c1cccc(C(F)(F)F)c1 (stereo partly drawn) [Example 49, 2-[({3-(4-Chlorophenyl)-5-oxo-4-[(2S)-3,3,3-trifluoro-2-hydroxypropyl]-4,5-dihydro-1H-1,2,4-triazol-1-yl}acetyl)amino]-N-(2-hydroxyethyl)-2-[3-(trifluoromethyl)phenyl]acetamide]"
